From US20240101540A1, “TARGETED PROTEIN DEGRADATION OF PARP14 FOR USE IN THERAPY” (Ribon Therapeutics, Inc., priority 2022, published 2024)
Where a name gives a salt, the structure may show the parent alone.

Biological target: T1, HiBiT tagged PARP14 (Homo sapiens, UniProt Q460N5)
T1 construct: engineered to contain a HiBiT tag on both alleles of the PARP14 gene; endogenous in cells; host or cells: Jurkat cells stably transfected with LgBiT (Promega), PARP14 locus edited by CRISPR/Cas9
Assay: HiBiT assay for the degradation of PARP14 (HiBiT tagged PARP14 in LgBiT expressing Jurkat cells, 2 or 24 hours)
Assay type: cell-based
Conditions: Assay B (Example B): HiBiT tagged PARP14 degradation in LgBiT expressing Jurkat cells, read-out: DC50
Description: Jurkat cells stably transfected with LgBiT (Promega) were engineered to contain a HiBiT tag on both alleles of the PARP14 gene (Genbank Accession Number: NM_017554) via CRISPR/Cas9 editing. The HiBiT tag is an 11 amino acid tag created by Promega that associates with LgBiT protein to form the NanoLuc® tag on the C-terminus of PARP14. Clones were isolated and confirmed for the HiBiT tag via Sanger sequencing.
Degradation of PARP14 protein was assessed by measuring the luminescence of the HiBiT tag associating with the LgBiT protein as a proxy for the PARP14 protein.
Jurkat cells were diluted to 250,000 cells per mL and then added to assay plate (Corning 3574) using a Multidrop (Thermo Fisher) to add 20 μL per well of the 384 well plate, resulting in 5,000 cells per well. 20 nL of a dose response curve diluted in DMSO of each test compound was added to the cell plate using a Mosquito (TTP Labtech) and the plate was incubated at 37° C. for 2 or 24 hours. Assay plate was brought to room temperature then 5 μL per well of Live Cell Substrate (Promega) was added to the plate. Luminescence was measured on an Envision (Perkin Elmer).
The average DMSO was calculated from 32 wells containing 0.1% DMSO only in columns 12 and 24 of the assay plate. The % of DMSO values were calculated as described below: […]
The % of DMSO values were plotted as a function of compound concentration and the following 4-parameter fit was applied to derive the DC50 values:
where top, bottom, and Hill Coefficient are allowed to float. Y is the % of DMSO and X is the compound concentration.
DC50 data for the Example compounds is provided below in Table 2 (“+” is ≤0.03 μM; “++” is ≥0.03 μM).

T1 sequence (Q460N5 whole entry): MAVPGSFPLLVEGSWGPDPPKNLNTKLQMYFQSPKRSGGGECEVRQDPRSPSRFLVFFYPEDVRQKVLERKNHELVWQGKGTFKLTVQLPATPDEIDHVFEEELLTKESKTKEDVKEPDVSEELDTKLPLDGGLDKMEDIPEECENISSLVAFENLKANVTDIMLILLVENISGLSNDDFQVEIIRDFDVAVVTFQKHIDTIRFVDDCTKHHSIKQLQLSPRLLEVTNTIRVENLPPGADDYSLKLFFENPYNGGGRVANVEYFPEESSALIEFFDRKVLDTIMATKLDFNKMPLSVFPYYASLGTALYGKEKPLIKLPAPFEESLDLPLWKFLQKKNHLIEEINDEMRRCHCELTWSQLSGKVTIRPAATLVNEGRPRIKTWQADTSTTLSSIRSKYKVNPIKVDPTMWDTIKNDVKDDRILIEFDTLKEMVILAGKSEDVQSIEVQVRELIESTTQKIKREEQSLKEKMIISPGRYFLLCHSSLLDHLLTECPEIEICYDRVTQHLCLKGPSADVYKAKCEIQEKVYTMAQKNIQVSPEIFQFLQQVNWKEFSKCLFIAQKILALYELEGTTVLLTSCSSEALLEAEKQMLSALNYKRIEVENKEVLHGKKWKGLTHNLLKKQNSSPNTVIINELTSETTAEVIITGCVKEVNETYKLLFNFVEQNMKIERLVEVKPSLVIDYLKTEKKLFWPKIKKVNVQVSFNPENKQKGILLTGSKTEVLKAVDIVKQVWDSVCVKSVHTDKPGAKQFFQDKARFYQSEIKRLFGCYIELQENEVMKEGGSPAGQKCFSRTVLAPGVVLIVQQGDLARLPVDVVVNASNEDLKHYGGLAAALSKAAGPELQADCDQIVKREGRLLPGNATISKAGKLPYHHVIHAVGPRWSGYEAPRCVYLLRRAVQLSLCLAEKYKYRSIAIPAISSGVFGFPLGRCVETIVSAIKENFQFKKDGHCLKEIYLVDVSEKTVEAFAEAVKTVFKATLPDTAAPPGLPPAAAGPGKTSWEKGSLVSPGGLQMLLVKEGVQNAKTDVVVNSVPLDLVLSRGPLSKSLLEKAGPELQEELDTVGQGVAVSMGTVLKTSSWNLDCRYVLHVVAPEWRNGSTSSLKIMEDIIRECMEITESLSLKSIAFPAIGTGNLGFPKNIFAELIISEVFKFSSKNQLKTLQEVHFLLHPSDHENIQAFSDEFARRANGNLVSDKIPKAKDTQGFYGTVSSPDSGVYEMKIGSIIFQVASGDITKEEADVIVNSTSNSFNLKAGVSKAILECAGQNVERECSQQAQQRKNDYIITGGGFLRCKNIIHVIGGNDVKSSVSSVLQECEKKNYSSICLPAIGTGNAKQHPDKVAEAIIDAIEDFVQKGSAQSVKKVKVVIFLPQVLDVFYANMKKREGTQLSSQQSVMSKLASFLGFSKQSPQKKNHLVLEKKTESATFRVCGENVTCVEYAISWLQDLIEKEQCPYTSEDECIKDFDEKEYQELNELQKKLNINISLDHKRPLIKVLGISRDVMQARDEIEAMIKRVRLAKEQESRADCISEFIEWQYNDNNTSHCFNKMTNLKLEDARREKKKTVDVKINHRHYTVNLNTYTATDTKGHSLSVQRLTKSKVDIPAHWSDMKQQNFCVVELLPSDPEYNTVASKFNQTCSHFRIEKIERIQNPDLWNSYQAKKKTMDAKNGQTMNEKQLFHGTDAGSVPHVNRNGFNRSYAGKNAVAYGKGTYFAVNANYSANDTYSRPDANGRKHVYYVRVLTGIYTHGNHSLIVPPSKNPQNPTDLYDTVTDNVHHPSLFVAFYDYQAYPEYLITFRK

Compound | DC50 [nM]
O=C1CCC(Nc2ccc(N3CC(N4CCN(CCOc5cc(F)c6c(=O)[nH]c(CSC7CCOCC7)nc6c5)CC4)C3)cc2)C(=O)N1 (centres unmarked) [Example 130, 3-((4-(3-(4-(2-((5-fluoro-4-oxo-2-(((tetrahydro-2H-pyran-4-yl)thio)methyl)-3,4-dihydroquinazolin-7-yl)oxy)ethyl)piperazin-1-yl)azetidin-1-yl)phenyl)amino)piperidine-2,6-dione] | < 30
[2H]C1([2H])N(CCN2CCC(COc3cc(F)c4c(=O)[nH]c(CSC5CCOCC5)nc4c3)CC2)C([2H])([2H])C([2H])([2H])N(c2ccc(NC3CCC(=O)NC3=O)cc2)C1([2H])[2H] (centres unmarked) [Example 131, 3-((4-(4-(2-(4-(((5-fluoro-4-oxo-2-(((tetrahydro-2H-pyran-4-yl)thio)methyl)-3,4-dihydroquinazolin-7-yl)oxy)methyl)piperidin-1-yl)ethyl)piperazin-1-yl-2,2,3,3,5,5,6,6-d8)phenyl)amino)piperidine-2,6-dione] | < 30
O=C1CCC(Nc2ccc(-c3ccc(CCN4CCC(COc5cc(F)c6c(=O)[nH]c(CSC7CCOCC7)nc6c5)CC4)cn3)cc2)C(=O)N1 (centres unmarked) [Example 132] | < 30
O=C1CCC(Nc2ccc(-c3ccc(CCN4CCC(COc5cc(F)c6c(=O)[nH]c(CSC7CCOCC7)nc6c5)CC4)nc3)cc2)C(=O)N1 (centres unmarked) [Example 133] | < 30
O=C1CCC(NC(=O)C23CC(N4CCN(CCN5CCC(COc6cc(F)c7c(=O)[nH]c(CSC8CCOCC8)nc7c6)CC5)CC4)(C2)C3)C(=O)N1 (centres unmarked) [Example 134, N-(2,6-dioxopiperidin-3-yl)-3-(4-(2-(4-(((5-fluoro-4-oxo-2-(((tetrahydro-2H-pyran-4-yl)thio)methyl)-3,4-dihydroquinazolin-7-yl)oxy)methyl)piperidin-1-yl)ethyl)piperazin-1-yl)bicyclo[1.1.1]pentane-1-carboxamide] | < 30
O=C1CCC(Nc2ccc(N3CCC(N4CCC(COc5cc(F)c6c(=O)[nH]c(COC7CCOCC7)nc6c5)CC4)CC3)c(F)c2)C(=O)N1 (centres unmarked) [Example 135, 3-((3-fluoro-4-(4-(((5-fluoro-4-oxo-2-(((tetrahydro-2H-pyran-4-yl)oxy)methyl)-3,4-dihydroquinazolin-7-yl)oxy)methyl)-[1,4′-bipiperidin]-1′-yl)phenyl)amino)piperidine-2,6-dione formate] | < 30
O=C1CCC(Nc2ccc(N3CCC(N4CC(N5CCC(COc6cc(F)c7c(=O)[nH]c(COC8CCOCC8)nc7c6)CC5)C4)CC3)c(F)c2)C(=O)N1 (centres unmarked) [Example 136, 3-((3-fluoro-4-(4-(3-(4-(((5-fluoro-4-oxo-2-(((tetrahydro-2H-pyran-4-yl)oxy)methyl)-3,4-dihydroquinazolin-7-yl)oxy)methyl)piperidin-1-yl)azetidin-1-yl)piperidin-1-yl)phenyl)amino)piperidine-2,6-dione] | < 30
O=C1CCC(Nc2ccc(N3CCN(CCN4CCC(COc5cc(F)c6c(=O)[nH]c(CSC7CCOCC7)nc6c5)CC4)CC3)c(Cl)c2)C(=O)N1 (centres unmarked) [Example 137] | < 30
O=C1CCC(Nc2ccc(N3CC4(CCC(N5CCC(COc6cc(F)c7c(=O)[nH]c(CSC8CCOCC8)nc7c6)CC5)CC4)C3)cc2)C(=O)N1 (centres unmarked) [Example 138] | < 30
COc1cc(N2CCC(N3CC(N4CCC(COc5cc(F)c6c(=O)[nH]c(CSC7CCOCC7)nc6c5)CC4)C3)CC2)c(F)cc1NC1CCC(=O)NC1=O (centres unmarked) [Example 139] | < 30
COc1cc(N2CCN(CCN3CCC(COc4cc(F)c5c(=O)[nH]c(CSC6CCOCC6)nc5c4)CC3)CC2)c(F)cc1NC1CCC(=O)NC1=O (centres unmarked) [Example 140] | < 30
O=C1CCC(Nc2cc(F)c(N3CCN(CCN4CCC(COc5cc(F)c6c(=O)[nH]c(CSC7CCOCC7)nc6c5)CC4)CC3)cc2F)C(=O)N1 (centres unmarked) [Example 141] | < 30
O=C1CCC(Nc2ccc(N3CCC(N4CC(N5CCC(COc6cc(F)c7c(=O)[nH]c(CSC8CCOCC8)nc7c6)CC5)C4)CC3)c(Cl)c2)C(=O)N1 (centres unmarked) [Example 142] | < 30
O=C1CCC(Nc2ccc(N3CCC4(CC3)CC(N3CCC(COc5cc(F)c6c(=O)[nH]c(CSC7CCOCC7)nc6c5)CC3)C4)c(F)c2)C(=O)N1 (centres unmarked) [Example 143, 3-((3-fluoro-4-(2-(4-(((5-fluoro-4-oxo-2-(((tetrahydro-2H-pyran-4-yl)thio)methyl)-3,4-dihydroquinazolin-7-yl)oxy)methyl)piperidin-1-yl)-7-azaspiro[3.5]nonan-7-yl)phenyl)amino)piperidine-2,6-dione] | < 30
O=C1CCC(Nc2ccc(N3CCC(CN4CCC(COc5cc(F)c6c(=O)[nH]c(CSC7CCOCC7)nc6c5)CC4)CC3)c(F)c2)C(=O)N1 (centres unmarked) [Example 144, 3-((3-fluoro-4-(4-((4-(((5-fluoro-4-oxo-2-(((tetrahydro-2H-pyran-4-yl)thio)methyl)-3,4-dihydroquinazolin-7-yl)oxy)methyl)piperidin-1-yl)methyl)piperidin-1-yl)phenyl)amino)piperidine-2,6-dione] | < 30
O=C1CCC(Nc2ccc(N3CC(N4CCC(N5CCC(COc6cc(F)c7c(=O)[nH]c(CSC8CCOCC8)nc7c6)CC5)CC4)C3)c(F)c2)C(=O)N1 (centres unmarked) [Example 145] | < 30
O=C1CCC(Nc2ccc(N3CCC(N4CC(N5CCC(COc6cc(F)c7c(=O)[nH]c(CCC8CCOCC8)nc7c6)CC5)C4)CC3)c(F)c2)C(=O)N1 (centres unmarked) [Example 146, 3-((3-fluoro-4-(4-(3-(4-(((5-fluoro-4-oxo-2-(2-(tetrahydro-2H-pyran-4-yl)ethyl)-3,4-dihydroquinazolin-7-yl)oxy)methyl)piperidin-1-yl)azetidin-1-yl)piperidin-1-yl)phenyl)amino)piperidine-2,6-dione formate] | < 30
CN(c1ccc(NC2CCC(=O)NC2=O)cc1F)C1CC(CN2CCC(COc3cc(F)c4c(=O)[nH]c(CSC5CCOCC5)nc4c3)CC2)C1 (centres unmarked) [Example 147, 3-((3-fluoro-4-((3-((4-(((5-fluoro-4-oxo-2-(((tetrahydro-2H-pyran-4-yl)thio)methyl)-3,4-dihydroquinazolin-7-yl)oxy)methyl)piperidin-1-yl)methyl)cyclobutyl)(methyl)amino)phenyl)amino)piperidine-2,6-dione] | < 30
O=C1CCC(Nc2ccc(N3CC(N4CC(N5CCC(COc6cc(F)c7c(=O)[nH]c(CSC8CCOCC8)nc7c6)CC5)C4)C3)c(F)c2)C(=O)N1 (centres unmarked) [Example 148, 3-((3-fluoro-4-(3-(4-(((5-fluoro-4-oxo-2-(((tetrahydro-2H-pyran-4-yl)thio)methyl)-3,4-dihydroquinazolin-7-yl)oxy)methyl)piperidin-1-yl)-[1,3′-biazetidin]-1′-yl)phenyl)amino)piperidine-2,6-dione formate] | < 30
O=C1CCC(NC(=O)c2ccc(N3CCC(N4CCC(COc5cc(F)c6c(=O)[nH]c(CSC7CCOCC7)nc6c5)CC4)CC3)cc2F)C(=O)N1 (centres unmarked) [Example 149, N-(2,6-dioxopiperidin-3-yl)-2-fluoro-4-(4-(((5-fluoro-4-oxo-2-(((tetrahydro-2H-pyran-4-yl)thio)methyl)-3,4-dihydroquinazolin-7-yl)oxy)methyl)-[1,4′-bipiperidin]-1′-yl)benzamide] | < 30
O=C1CCC(Nc2ccc(NC3CC(CN4CCC(COc5cc(F)c6c(=O)[nH]c(CSC7CCOCC7)nc6c5)CC4)C3)c(F)c2)C(=O)N1 (centres unmarked) [Example 150, 3-((3-fluoro-4-((3-((4-(((5-fluoro-4-oxo-2-(((tetrahydro-2H-pyran-4-yl)thio)methyl)-3,4-dihydroquinazolin-7-yl)oxy)methyl)piperidin-1-yl)methyl)cyclobutyl)amino)phenyl)amino)piperidine-2,6-dione formate] | < 30
O=C1CCC(NC(=O)c2ccc(N3CCC(N4CC(N5CCC(COc6cc(F)c7c(=O)[nH]c(CSC8CCOCC8)nc7c6)CC5)C4)CC3)cc2F)C(=O)N1 (centres unmarked) [Example 151, N-(2,6-dioxopiperidin-3-yl)-2-fluoro-4-(4-(3-(4-(((5-fluoro-4-oxo-2-(((tetrahydro-2H-pyran-4-yl)thio)methyl)-3,4-dihydroquinazolin-7-yl)oxy)methyl)piperidin-1-yl)azetidin-1-yl)piperidin-1-yl)benzamide] | < 30
O=C1CCC(Nc2ccc(N3CCC(C(=O)N4CC(N5CCC(COc6cc(F)c7c(=O)[nH]c(CSC8CCOCC8)nc7c6)CC5)C4)CC3)c(F)c2)C(=O)N1 (centres unmarked) [Example 152, 3-((3-fluoro-4-(4-(3-(4-(((5-fluoro-4-oxo-2-(((tetrahydro-2H-pyran-4-yl)thio)methyl)-3,4-dihydroquinazolin-7-yl)oxy)methyl)piperidin-1-yl)azetidine-1-carbonyl)piperidin-1-yl)phenyl)amino)piperidine-2,6-dione formate] | < 30
